Data: PMC11162475, “Rule-based omics mining reveals antimicrobial macrocyclic peptides against drug-resistant clinical isolates” (Nature Communications, 2024)
Values after ≈ are worked out from the molar mass of the structure shown.

Legend:
LREfa 20-1 = test: microbe, parasite or virus in culture; format: cell-based, Enterococcus faecalis; settings: 20 h
Procedure: (§1) For MIC determination, Staphylococcus aureus ATCC25923, Bacillus subtilis 168, Micrococcus luteus DSM1790, Enterococcus faecalis OG1RF, Enterococcus faecium MCC2763, Escherichia coli DH5α and Pseudomonas aeruginosa PAO1 were used as indicator strains. Nisin and vancomycin were used as positive controls. A dilution series of massatide A, massatide B, vancomycin (16, 8, 4, 2, 1, 0.5, 0.25, 0.125, 0.0625, 0.0313 μg/mL) and sistertide A1, kebanetide A1, kebanetide A2, nisin (64, 32, 16, 8, 4, 2, 1, 0.5, 0.25, 0.125 μg/mL) were prepared in 96-well plate from 1–10th column. The indicator strains were added to the compound-containing well. The indicator strain culture with no antibiotics was prepared in the 11th column. The 12th column was filled with 200 μL empty MHB medium. The 96-well plate was incubated at 37 °C for 20 h (30 °C for M. luteus and B. subtilis). The OD600 was detected on MULTISKAN Sky (Thermo Scientific) and MIC values were determined. The MIC values of clinical isolates were determined by Sichuan Primed Shines Bio-tech Co., Ltd. (China) following similar protocol. Levofloxacin was used as a positive control.

VREfa ATCC51575 = test: microbe, parasite or virus in culture; format: cell-based, Enterococcus faecalis; settings: ATCC51575, 20 h
Procedure: as §1

S. aureus ATCC 25923 = test: Time-dependent killing assay; format: cell-based, Staphylococcus aureus; settings: for log(CFU/mL) / CFU/mL: time-killing assay
Procedure: (§2) Time-dependent killing assay
(§3) An overnight culture of S. aureus ATCC 25923 cells was diluted at 1:10,000 in MHB medium and incubated at 37 ℃, 200 rpm for 2 hours to reach the early exponential.
(§4) Then, massatide A or vancomycin was added to the culture at the concentration of 10×MIC. Bacteria were still cultivated at 37 ℃, 200 rpm. Culture with no antibiotics was used as a negative control. 10 μL aliquots were removed at intervals, centrifuged, and resuspended in 1 ml PBS. Serially diluted (10-fold) suspensions were plated on MHB agar and incubated at 37 ℃ overnight for counting of colony-forming units.
Experiments were performed in triplicate. […]

[1] = Mammalian cytotoxicity, CCK-8 assay; format: cell-based; settings: human
Procedure: Bioactivity assay of the crude extract
Protease stability of massatide A
Thermal stability of massatide A […]
and 1% penicillin -streptomycin. […]
and CO 2-controllable incubator with 5% CO 2. All the cell experiments were performed […]
Cell viability was determined by the CCK -8 assay. HeLa and Hek -293T cells were […]
µg/ml. At the end of the fixed incubation period (24 h), cells were washed with PBS to remove excess compound. We added 100 µl fresh medium and 10 µl CCK-8 reagent.
After 2 h incubation at 37°C, absorbance at 450 nm was recorded using a microplate reader. All experiments were performed in triplicate (n=3 independent experiments).
Growth kinetics of S. aureus
Massatide A or B was prepared in a 96-well plate at the concentration of 8×MIC, 4×MIC, 2×MIC, 1×MIC and 0.5×MIC , respectively. The MHB medium with no compound was used as a control. Then, the overnight culture of S. aureus ATCC 25923 cells was added to the medium at 1:1,000. The plate was incubated with shaking in SpectraMax iD3 (MOLECULAR DEVICES) at 30 ℃. OD600 was measured every 30 min for 36 hours. To analyze the lysis, 1mL of S. aureus ATCC 25923 culture (OD600 1.0) was treated with massatide A or vancomycin (10×MIC) for 24h. An untreated sample was used as a negative control.
as §2, §3, §4
Experiments were performed in triplicate.
Sequential culturing of S. aureus ATCC 25923 was performed in the presence of a subinhibitory concentration of massatide A to observe whether the resistance developed. […]

[2] = 300 μl of water added to 0.9 mg solid; visual, not quantitative

C/C=C1\NC(=O)C(N(C)C)C(C)SC[C@@H](C(=O)N[C@H](CC)C(=O)N[C@H](C(=O)N[C@@H](C)C(=O)N[C@H](C)C(=O)N[C@@H](Cc2ccccc2)C(=O)N[C@@H](C)C(=O)NC2C(=O)NCC(=O)N[C@@H](Cc3ccc(O)cc3)C(=O)N[C@@H](Cc3ccccc3)C(=O)N[C@H](C)C(=O)N/C=C\SC2C)C(C)C)NC(=O)[C@@H]2CCCN2C(=O)[C@H](C(C)C)NC1=O (stereo partly drawn) [Massatide A (1), massatide A]
MIC (LREfa 20-1): 4 µg/mL (≈ 2.45 µM)
MIC (VREfa ATCC51575): 4 µg/mL (≈ 2.45 µM)
time-dependent killing, mode of killing (S. aureus ATCC 25923; S. aureus, early exponential phase, 10×MIC, 37 °C, c.f.u. counting, triplicate): bactericidal
log(CFU/mL) (S. aureus ATCC 25923; time 0 h, log of mean of 3 replicates): 6.553 log(CFU/mL)
CFU/mL (S. aureus ATCC 25923; time 0 h, mean of 3 replicates): 3576667 CFU/mL
CFU/mL (S. aureus ATCC 25923; time 0 h, replicate 1): 2840000 CFU/mL
log(CFU/mL) (S. aureus ATCC 25923; time 0 h, replicate 1): 6.453 log(CFU/mL)
CFU/mL (S. aureus ATCC 25923; time 0 h, replicate 2): 4020000 CFU/mL
log(CFU/mL) (S. aureus ATCC 25923; time 0 h, replicate 2): 6.604 log(CFU/mL)
CFU/mL (S. aureus ATCC 25923; time 0 h, replicate 3): 3870000 CFU/mL
log(CFU/mL) (S. aureus ATCC 25923; time 0 h, replicate 3): 6.588 log(CFU/mL)
log(CFU/mL) (S. aureus ATCC 25923; time 1 h, log of mean of 3 replicates): 4.699 log(CFU/mL)
CFU/mL (S. aureus ATCC 25923; time 1 h, mean of 3 replicates): 50000 CFU/mL
CFU/mL (S. aureus ATCC 25923; time 1 h, replicate 1): 70000 CFU/mL
log(CFU/mL) (S. aureus ATCC 25923; time 1 h, replicate 1): 4.8451 log(CFU/mL)
CFU/mL (S. aureus ATCC 25923; time 1 h, replicate 2): 50000 CFU/mL
log(CFU/mL) (S. aureus ATCC 25923; time 1 h, replicate 2): 4.699 log(CFU/mL)
CFU/mL (S. aureus ATCC 25923; time 1 h, replicate 3): 30000 CFU/mL
log(CFU/mL) (S. aureus ATCC 25923; time 1 h, replicate 3): 4.477 log(CFU/mL)
log(CFU/mL) (S. aureus ATCC 25923; time 3 h, log of mean of 3 replicates): 4.176 log(CFU/mL)
CFU/mL (S. aureus ATCC 25923; time 3 h, mean of 3 replicates): 15000 CFU/mL
CFU/mL (S. aureus ATCC 25923; time 3 h, replicate 1): 10000 CFU/mL
log(CFU/mL) (S. aureus ATCC 25923; time 3 h, replicate 1): 4 log(CFU/mL)
CFU/mL (S. aureus ATCC 25923; time 3 h, replicate 2): 20000 CFU/mL
log(CFU/mL) (S. aureus ATCC 25923; time 3 h, replicate 2): 4.301 log(CFU/mL)
CFU/mL (S. aureus ATCC 25923; time 3 h, replicate 3): 15000 CFU/mL
log(CFU/mL) (S. aureus ATCC 25923; time 3 h, replicate 3): 4.176 log(CFU/mL)
log(CFU/mL) (S. aureus ATCC 25923; time 7 h, log of mean of 3 replicates): 3.921 log(CFU/mL)
CFU/mL (S. aureus ATCC 25923; time 7 h, mean of 3 replicates): 8333.33 CFU/mL
CFU/mL (S. aureus ATCC 25923; time 7 h, replicate 1): 5000 CFU/mL
log(CFU/mL) (S. aureus ATCC 25923; time 7 h, replicate 1): 3.699 log(CFU/mL)
CFU/mL (S. aureus ATCC 25923; time 7 h, replicate 2): 10000 CFU/mL
log(CFU/mL) (S. aureus ATCC 25923; time 7 h, replicate 2): 4 log(CFU/mL)
CFU/mL (S. aureus ATCC 25923; time 7 h, replicate 3): 10000 CFU/mL
log(CFU/mL) (S. aureus ATCC 25923; time 7 h, replicate 3): 4 log(CFU/mL)
log(CFU/mL) (S. aureus ATCC 25923; time 26 h, log of mean of 3 replicates): 2.049 log(CFU/mL)
CFU/mL (S. aureus ATCC 25923; time 26 h, mean of 3 replicates): 112 CFU/mL
CFU/mL (S. aureus ATCC 25923; time 26 h, replicate 1): 70 CFU/mL
log(CFU/mL) (S. aureus ATCC 25923; time 26 h, replicate 1): 1.8451 log(CFU/mL)
CFU/mL (S. aureus ATCC 25923; time 26 h, replicate 2): 120 CFU/mL
log(CFU/mL) (S. aureus ATCC 25923; time 26 h, replicate 2): 2.079 log(CFU/mL)
CFU/mL (S. aureus ATCC 25923; time 26 h, replicate 3): 146 CFU/mL
log(CFU/mL) (S. aureus ATCC 25923; time 26 h, replicate 3): 2.164 log(CFU/mL)
IC50 at 24 h [1]: 136 µg/mL (≈ 83.4 µM)
water solubility (observation) [2]: not fully dissolved
